# Reference: patent US9868717B2, “Tricyclic sulphonamide compounds and methods of making and using same” (Zafgen, Inc., priority 2012, dated 2018)
# pIC50: −log10 of the molar value.
# Target: T1, Human recombinant MetAP2 (Homo sapiens, UniProt P50579)
# T1 construct: made in house; host or cells: Sf9 insect cells
# Test: inhibition of recombinant human MetAP2 activity (MAS substrate, amino acid oxidase/Amplex red fluorescence)
# Type: biochemical
# Details: manganese enzyme, 30 minutes at 25° C., pH 7.5, 0.75 mM MAS substrate, 1% DMSO
# Description: Compounds are tested for their capacity to inhibit recombinant human MetAP2 activity using the following assay.
# Human recombinant MetAP2 expressed in Sf9 cells followed by affinity purification and EDTA treatment to remove endogenous active site cation was dialysed against MnCl2 to produce the manganese enzyme used in the assay. The assay was carried out for 30 minutes at 25° C. in 50 mM HEPES buffer containing 100 mM NaCl, pH 7.5 the presence of 0.75 mM Methionine-Alanine-Serine (MAS) substrate and 50 μg/ml amino acid oxidase using a dilution of purified MetAP2 giving >3-fold signal:noise. Cleavage of the substrate by MetAP2 and oxidation of free methionine by amino acid oxidase was detected and quantified using fluorescence generated by Amplex red (10-acetyl-3,7-dihydroxyphenoxazine) in combination with horseradish peroxidase which detects H2O2 released during the oxidation step. The fluorescent signal was detected using a multiwell fluorimeter. Compounds were diluted in DMSO prior to addition to assay buffer, the final DMSO concentration in the assay being 1%.
# The IC50 is defined as the concentration at which a given compound achieves 50% inhibition of control. IC50 values are calculated using the XLfit software package (version 2.0.5).
# T1 sequence (P50579 whole entry): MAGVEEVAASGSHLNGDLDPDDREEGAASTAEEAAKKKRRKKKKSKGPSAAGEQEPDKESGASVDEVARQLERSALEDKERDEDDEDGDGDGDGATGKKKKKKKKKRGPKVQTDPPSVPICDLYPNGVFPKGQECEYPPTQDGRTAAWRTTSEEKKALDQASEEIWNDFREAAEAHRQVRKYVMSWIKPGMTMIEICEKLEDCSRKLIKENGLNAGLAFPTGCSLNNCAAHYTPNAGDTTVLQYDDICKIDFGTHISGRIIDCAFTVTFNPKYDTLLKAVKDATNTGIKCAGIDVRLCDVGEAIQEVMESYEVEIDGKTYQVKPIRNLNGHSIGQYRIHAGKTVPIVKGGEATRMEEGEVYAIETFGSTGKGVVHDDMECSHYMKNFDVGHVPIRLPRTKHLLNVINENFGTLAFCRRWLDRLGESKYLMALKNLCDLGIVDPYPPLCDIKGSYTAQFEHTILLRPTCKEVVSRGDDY
row,Structure (SMILES),pIC50
1,"O=C(O)c1c(NS(=O)(=O)c2ccc(F)cc2CC2CN3CCC2CC3)ccc2c1OC[C@@H]1C[C@H]21 (stereo partly drawn) [Example 9, (1aR,7bS)-5-[2-(1-Azabicyclo[2.2.2]oct-3-ylmethyl)-4-fluorobenzenesulfonyl-amino]-1,1a,2,7b-tetrahydrocyclopropa[c]chromene-4-carboxylic acid]",> 7.30
2,"CC1(O)CCN(C/C=C\c2cc(F)ccc2S(=O)(=O)Nc2ccc3c(c2C(=O)O)OC[C@@H]2C[C@H]32)C1 (stereo partly drawn) [Example 20, (1aR,7bS)-5-{4-Fluoro-2-[(Z)-3-(3-hydroxy-3-methylpyrrolidin-1-yl)prop-1-enyl]benzenesulfonylamino}-1,1a,2,7b-tetrahydrocyclopropa[c]chromene-4-carboxylic acid]",> 7.30
3,"O=C(O)c1c(NS(=O)(=O)c2ccc(F)cc2/C=C\CN2CCC(O)CC2)ccc2c1OC[C@@H]1C[C@H]21 [Example 21, (1aR,7bS)-5{4-Fluoro-2-[(Z)-3-(4-hydroxypiperidin-1-yl)prop-1-enyl]benzenesulfonylamino}-1,1a,2,7b-tetrahydrocyclopropa[c]chromene-4-carboxylic acid]",6.30 to 7.30
4,"CC1(O)CCN(C/C=C\c2cc(F)ccc2S(=O)(=O)Nc2ccc3c(c2C(=O)O)OC[C@@H]2C[C@H]32)CC1 [Example 22, (1aR,7bS)-5-{4-Fluoro-2-[(Z)-3-(4-hydroxy-4-methylpiperidin-1-yl)prop-1-enyl]benzenesulfonylamino}-1,1a,2,7b-tetrahydrocyclopropa[c]chromene-4-carboxylic acid]",6.30 to 7.30
5,"O=C(O)c1c(NS(=O)(=O)c2ccc(F)cc2/C=C\[C@@H]2CCCN2)ccc2c1OC[C@@H]1C[C@H]21 [Example 24, (1aR,7bS)-5-{4-Fluoro-2-[(Z)-2-((S)-pyrrolidin-2-yl)ethenyl]benzenesulfonyl-amino}-1,1a,2,7b-tetrahydrocyclopropa[c]chromene-4-carboxylic acid]",> 7.30

# More lines, now with the values ahead:
row,pIC50,Structure (SMILES)
1,> 7.30,"O=C(O)c1c(NS(=O)(=O)c2ccc(F)cc2C[C@H]2CCNC2)ccc2c1OC[C@@H]1C[C@H]21 [Example 7, (1aR,7bS)-5-[4-Fluoro-2-((S)-pyrrolidin-3-ylmethyl)benzenesulfonylamino]-1,1a,2,7b-tetrahydrocyclopropa[c]chromene-4-carboxylic acid]"
2,> 7.30,"CC(C)(O)CN1CC[C@@H](Cc2cc(F)ccc2S(=O)(=O)Nc2ccc3c(c2C(=O)O)OC[C@@H]2C[C@H]32)C1 [Example 8, (1aR,7bS)-5-{4-Fluoro-2-[(R)-1-(2-hydroxy-2-methylpropyl)pyrrolidin-3-ylmethyl]benzenesulfonylamino}-1,1a,2,7b-tetrahydrocyclopropa[c]chromene-4-carboxylic acid]"
3,> 7.30,"CCN1CCC[C@@H]1CCc1cc(F)ccc1S(=O)(=O)Nc1ccc2c(c1C(=O)O)OC[C@@H]1C[C@H]21 [Example 16, (1aR,7bS)-5-{2-[2-((S)-1-Ethylpyrrolidin-2-yl)ethyl]-4-fluorobenzene-sulfonylamino}-1,1a,2,7b-tetrahydrocyclopropa[c]chromene-4-carboxylic acid]"
4,> 7.30,"O=C(O)c1c(NS(=O)(=O)c2ccc(F)cc2C[C@@H]2CCN(CCO)C2)ccc2c1OC[C@@H]1C[C@H]21 [Example 17, (1aR,7bS)-5-{4-Fluoro-2-[(R)-1-(2-hydroxyethyl)pyrrolidin-3-ylmethyl]-benzenesulfonylamino}-1,1a,2,7b-tetrahydrocyclopropa[c]chromene-4-carboxylic acid]"
5,6.30 to 7.30,"CCN1CC2C(C1)C2c1cc(F)ccc1S(=O)(=O)Nc1ccc2c(c1C(=O)O)OC[C@@H]1C[C@H]21 (stereo partly drawn) [Example 23, (1aR,7bS)-5-[2-(3-Ethyl-3-azabicyclo[3.1.0]hex-6-yl)-4-fluorobenzene-sulfonylamino]-1,1a,2,7b-tetrahydrocyclopropa[c]chromene-4-carboxylic acid]"
